# Test results reported in publication PMC10891983, “First Description of Marinoquinoline Derivatives’ Activity against Toxoplasma gondii” (Pharmaceutics, 2024).
# “Also recorded” adds a separate entry of the source.
# Legend:
# T. gondii tachyzoites = assay: microbe, parasite or virus in culture; assay type: cell-based, Toxoplasma gondii; settings: for EC50: Toxoplasma gondii, T. gondii RH-2F1 tachyzoites in HFF, 72 h, ± SD of three independent experiments, read-out: EC50 (Half Effective Concentration); for SI (Selectivity index): CC50 (HFF)/EC50 (T. gondii)
# [1] = Assay for evaluating mammalian cytotoxicity (MTT); assay type: cell-based; settings: human, human foreskin fibroblast (HFF) cells, ± SD of three independent experiments, read-out: CC50 (Half Cytotoxic Concentration)
# [2] = tested on: RH strain T. gondii tachyzoites; assay type: in vivo
# Method: To evaluate the effectiveness of MQ-1 in treating acute T. gondii infection in vivo, a murine model was employed, utilizing Swiss mice in accordance with established protocols. […] Treatment involved the administration of compounds dissolved in a 4% DMSO solution in water, and was conducted one day post-infection. […] . As for the control group, they were administered 100 µL of the vehicle utilized for MQ-1 dilution, consisting of a 4% DMSO solution in water. Continuous monitoring of the mice included daily assessments for signs of toxoplasmosis. These signs encompassed impaired mobility, feeding difficulties, weight loss, self-mutilation, and severe ascites. […] The implementation of humane endpoints aimed to mitigate any potential pain or suffering in the animals, leading to their euthanasia when necessary. At the end of the experimental period, euthanasia was performed on all remaining mice, and the peritoneal parasite load was estimated using a Neubauer chamber.
# ME49 strain T. gondii = assay: Chronic toxoplasmosis model, ME49-infected C57BL/6 mice
# Source text: Male Swiss mice (Mus musculus) (8 weeks old) for the acute toxoplasmosis experiments and female C57BL/6 mice (4 weeks old) for the chronic toxoplasmosis experiments were sourced from the animal breeding facility at the Universidade Federal de Alfenas, Brazil. Strict adherence to the principles of good animal practice, as outlined in the Brazilian Guidelines for Care and Utilization of Animals by the Conselho Nacional de Controle e Experimentação Animal (CONCEA), was observed during the handling of all animals. The study protocol received approval from the Ethics Committee for Animal Experimentation at the Universidade Federal de Alfenas under Protocols 033/2021 and 0006/2023. All necessary precautions were taken to minimize any potential suffering experienced by the animals.
# The mice were infected with 10 cysts of the ME49 strain of T. gondii via intraperitoneal inoculation, following the protocol by [16]. After a 40-day infection period, random assignment was used to divide the mice into distinct experimental groups, each consisting of four mice. These experimental groups were subjected to different treatments: MQ-1, administered either at a dosage of 25 mg/kg/day or 12.5 mg/kg/day, prepared with a 4% DMSO solution in water. […] The administration was carried out via oral gavage, with a final volume of 100 µL per dose. For the control group, 100 µL of the vehicle used to dilute MQ-1 (4% DMSO in water) was administered. […] On the 51st day post-infection, euthanasia was performed for all animals, followed by brain tissue collection for RNA extraction and quantification, as detailed in [18]. DNA extraction and purification were carried out using the PureLink Genomic DNA Minikit (Invitrogen. Carlsbad, CA, USA) following the manufacturer’s instructions. […] After extraction, RNA samples were immediately processed for cDNA synthesis and underwent quantitative real-time (qPCR) analysis. […]
# Data on parasite burden in acute and chronic infection in treated and untreated groups were analyzed for statistical significance using One-Way ANOVA, followed by the Tukey post-test. […]
# [3] = vs pyrimethamine 12.5 mg/kg/day
SMILES,EC50 (T. gondii tachyzoites) [nM],CC50 at 72 h [1] [µM],"signs of toxicity throughout the treatment ([2]; Swiss mice, 12.5 mg/kg/day oral for 8 days)","difference between the tested compound and the standard drug, acute evaluation [2, 3]","cerebral parasitic load vs vehicle (ME49 strain T. gondii; C57BL/6 mice, ME49 strain, 25 mg/kg/day oral for 10 consecutive days from day 41 post-infection, qPCR, p < 0.01, 25 mg/kg/day)","difference between the tested compound and the standard drug, chronic evaluation (ME49 strain T. gondii; [3])",SI (Selectivity index) (T. gondii tachyzoites)
COc1ccc2c(c1)nc(-c1c[nH]c3ccccc13)c1[nH]ccc12 [MQ-1],1460 ± 450,30.5 ± 1.8,No signs of toxicity were observed,no statistically significant differences,significantly reduced; also recorded: significant (p < 0.01) reduction,no statistically significant differences,
COc1ccc2c(c1)nc(-c1ccc(N3CCNCC3)cc1)c1[nH]ccc12 [MQ-2],1670 ± 400,29.1 ± 0.84,,,,,17.39
CC(C)(C)OC(=O)Nc1ccc(-c2nc3ccc(Cl)cc3c3cc[nH]c23)cc1 [MQ-3],1600 ± 540,5.36 ± 0.91,,,,,3.35
CC(C)(C)OC(=O)Nc1ccc(-c2nc3ccc(OC(F)(F)F)cc3c3cc[nH]c23)cc1 [MQ-4],1310 ± 310,4.16 ± 1.05,,,,,3.18
COc1ccc2c(c1)nc(-c1ccc(N3CCC(F)CC3)cc1)c1[nH]ccc12 [MQ-5],1430 ± 370,5.05 ± 1.63,,,,,3.52
COc1ccc2c(c1)nc(-c1ccc(Br)cn1)c1[nH]ccc12 [MQ-6],3780 ± 670,28.6 ± 7.33,,,,,7.55
"CCc1nc(N)nc(N)c1-c1ccc(Cl)cc1 [PYR, pyrimethamine, reference compound]",290 ± 190,68.1 ± 4.26,,,,,
